Test results taken from article PMC6368365, “Didehydro-Cortistatin A Inhibits HIV-1 by Specifically Binding to the Unstructured Basic Region of Tat” (mBio, 2019).

Test system: recombinant Tat transactivation of HIV-1 5′ LTR-luciferase
Assay: Transactivation assay with recombinant Tat in HeLa-CD4-LTR-Luc cells
Assay type: cell-based
From the text: The production of functional recombinant HIV-1 Tat in Escherichia coli is not trivial as the proper folding of Tat is extremely important for activity, and when expressed by itself, Tat agglomerates mostly because of oxidation of the cysteine residues in the cysteine region. Tat can also adhere to different surfaces and anionic polymers via its charged and hydrophobic residues ([21], [22]). We produced and purified recombinant HIV Tat HXB3 (residues 1 to 89) with a 6×His tag in the C-terminus in E. coli. For this, we have partially optimized the arginine codon usage and changed the rare AGA into codon CGT at arginine positions 7, 53, 56, and 87 of Tat (Fig. 1A). […] After Tat purification using nickel affinity chromatography followed by size exclusion filtration, Tat protein size was analyzed by SDS-PAGE followed by Coomassie blue staining (Fig. 1B). The specificity of the bands was confirmed by Western blotting using anti-Tat serum and anti-His antibody (Fig. 1B). The purity of Tat was further verified by size exclusion chromatography and high-performance liquid chromatography (HPLC) (Fig. 1C and D). We confirmed the activity of Tat by performing transactivation assays in both HeLa-CD4 cells stably expressing the HIV-1 5′ long terminal repeat (LTR) promoter driving luciferase expression (HeLa-CD4-LTR-Luc cells) ([10]) and the OM10.1 cell line model of HIV-1 latency ([23]) (Fig. 1E and F; see Fig. S2A and S2B in the supplemental material). In HeLa-CD4-LTR-Luc cells, the activity of our purified Tat was similar to the published activity of Tat obtained from the AIDS Reagent Program ([10]). In addition, denatured Tat and Tat mutated in the basic domain (Tat Mut [arginine residues mutated to alanine residues]), used as negative controls, were unable to transactivate the reporter (Fig. S2A).
FIG 1 Purity and activity of the monomeric His-tagged Tat HXB3 and analysis of its direct binding to dCA. […] Statistical significance was determined using one-way ANOVA with post hoc Tukey’s test. ns, not significant; ***, P < 0.0001; *, P < 0.01. […]

Row | SMILES | inhibition of recombinant Tat transactivation (luciferase)
1 | C[C@@](Cc1ccc(O)c(O)c1)(NN)C(=O)O.O [SCM, S-(−)-carbidopamonohydrate, reference compound] | no inhibitory activity
2 | CN(C)C1CC23CCC4(O2)C(=CCC2(C)C(c5ccc6ccncc6c5)=CCC24)C=C3C(O)C1O (stereo not drawn) [dCA, didehydro-cortistatin A] | blocked Tat transcriptional activity in a dose-dependent manner
3 | Cc1nnc(C(=O)NC(C)(C)c2nc(C(=O)NCc3ccc(F)cc3)c(O)c(=O)n2C)o1 [raltegravir, reference compound] | no inhibitory activity
